Reference: patent US5639778A, “Indoletetralins having dopaminergic activity” (Pharmacia & Upjohn Company, priority 1995, dated 1997)
Where two headings read alike, the source gives them in different places. Values belong to the molecule of their own block, whether it stands above or below them.

Key:
[1] = tested on: DOPA accumulation in the striatum (DA synthesis rate); test: DOPA accumulation in striatum of reserpine-pretreated rats; format: in vivo, rat; settings: for ED50: Rattus norvegicus, sc, 0.5 h, read-out: DOPA ED50 Stri.
Experimental: (§1) Effects on DOPA and 5-HTP accumulation in reserpine -
(§2) The animals were pretreated with reserpine (5 mg/kg, s.c.) 18 hours before the experiment. Test drugs were administered and immediately thereafter the motron activity was measured in photocell motility boxes. The rats were injected with the decarboxylase inhibitor NSD 1015 (100 mg/kg, s.c.) and killed 30 minutes later. The accumulation of DOPA in the striatum, limbic and […] and that of 5-HTP in the limbic forebrain was taken as a measure of the DA and 5-HT synthesis rates, respectively. The accumulation of DOPA in the cortex area was taken as a measure of NA synthesis rate. […] The same theory is valid for 5-HT receptor agonists and antagonists. Dose-response curves were constructed for each compound (4-5 dose levels, n=4) and the half-maximal decrease (ED50) was calculated.
(§3) P=partial decrease; maximal decrease was not reached at the highest dose (shown in brackets). The % decrease from control is also shown. NT=not tested. [drawing 4]

[2] = tested on: DOPA accumulation in the cortex (NA synthesis rate); test: DOPA accumulation in cortex of reserpine-pretreated rats; format: in vivo, rat; settings: for DOPA ED50 Cortex. (I/P symbol): s.c., number in brackets = highest dose, μmol/kg; for ED50: Rattus norvegicus, sc, 0.5 h, read-out: DOPA ED50 Cortex. (I/P symbol)
Experimental: as §1, §2, §3

[3] = tested on: 5-HTP accumulation in the limbic forebrain (5-HT synthesis rate); test: 5-HTP accumulation in limbic forebrain of reserpine-pretreated rats; format: in vivo, rat
Experimental: as §1, §2, §3

[4] = target: T1, dopamine D2 receptor (D2CHO cells) (Homo sapiens, UniProt P14416); test: binding experiments using D2CHO cells and Raclopride as the labeled ligand
T1 construct: expressed in transfected cells; host or cells: CHO cells (D2CHO)
Source text: *Data from binding experiments using D2CHO cells and Raclopride as the […]

[5] = target: T2, serotonin 5-HT1A receptor (Rattus norvegicus, UniProt P19327); test: in vitro affinity for brain serotonin 5-HT1A receptor sites, 8-OH-DPAT; settings: non-pretreated, read-out: In vitro binding Ki 5HT1A
T2 construct: from tissue
T2 sequence (P19327 1-422): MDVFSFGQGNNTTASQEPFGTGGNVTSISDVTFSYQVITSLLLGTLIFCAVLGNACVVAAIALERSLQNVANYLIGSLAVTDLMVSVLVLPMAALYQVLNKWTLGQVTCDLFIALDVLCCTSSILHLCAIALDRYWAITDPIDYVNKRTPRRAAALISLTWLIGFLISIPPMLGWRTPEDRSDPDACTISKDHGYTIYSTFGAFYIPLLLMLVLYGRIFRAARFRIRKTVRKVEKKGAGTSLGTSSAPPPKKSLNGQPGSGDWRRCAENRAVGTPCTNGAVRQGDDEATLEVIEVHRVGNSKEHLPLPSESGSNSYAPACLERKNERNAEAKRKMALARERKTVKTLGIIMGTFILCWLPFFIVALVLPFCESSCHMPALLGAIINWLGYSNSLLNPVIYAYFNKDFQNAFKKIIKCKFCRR
Source text: (§4) pretreated rats. Also shown are the in vitro affinities for brain
(§5) dopamine (D2, Spiperone) and serotonin (5-HT1A, 8-OH-DPAT)
(§6) receptor sites in non-pretreated rats.

dopamine D2 receptor = target: T3, dopamine D2 receptor (Rattus norvegicus, UniProt P61169); test: in vitro affinity for brain dopamine D2 receptor sites, Spiperone; format: binding; settings: non-pretreated
T3 construct: from tissue
Source text: as §4, §5, §6

[6] = D2CHO cells, Raclopride as labeled ligand, read-out: In vitro binding Ki D2 (marked *)
[7] = Rattus norvegicus, sc, 0.5 h, read-out: 5-HTP ED50 Limbic (I/P symbol)
[8] = read-out: In vitro binding Ki D2-spip.

T1 sequence (P14416 whole entry): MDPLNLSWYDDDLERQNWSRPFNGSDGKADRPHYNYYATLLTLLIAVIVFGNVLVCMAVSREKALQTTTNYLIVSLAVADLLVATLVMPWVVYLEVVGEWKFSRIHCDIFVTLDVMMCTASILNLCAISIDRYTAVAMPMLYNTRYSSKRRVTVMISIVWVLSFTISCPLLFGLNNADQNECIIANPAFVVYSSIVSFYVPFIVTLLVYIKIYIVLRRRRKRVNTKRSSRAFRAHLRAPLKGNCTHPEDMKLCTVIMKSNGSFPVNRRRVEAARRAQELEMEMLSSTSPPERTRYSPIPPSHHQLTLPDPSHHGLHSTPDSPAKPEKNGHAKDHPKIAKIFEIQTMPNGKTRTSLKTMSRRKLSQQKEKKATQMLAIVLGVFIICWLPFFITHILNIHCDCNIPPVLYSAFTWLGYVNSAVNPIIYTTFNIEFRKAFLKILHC
T3 sequence (P61169 whole entry): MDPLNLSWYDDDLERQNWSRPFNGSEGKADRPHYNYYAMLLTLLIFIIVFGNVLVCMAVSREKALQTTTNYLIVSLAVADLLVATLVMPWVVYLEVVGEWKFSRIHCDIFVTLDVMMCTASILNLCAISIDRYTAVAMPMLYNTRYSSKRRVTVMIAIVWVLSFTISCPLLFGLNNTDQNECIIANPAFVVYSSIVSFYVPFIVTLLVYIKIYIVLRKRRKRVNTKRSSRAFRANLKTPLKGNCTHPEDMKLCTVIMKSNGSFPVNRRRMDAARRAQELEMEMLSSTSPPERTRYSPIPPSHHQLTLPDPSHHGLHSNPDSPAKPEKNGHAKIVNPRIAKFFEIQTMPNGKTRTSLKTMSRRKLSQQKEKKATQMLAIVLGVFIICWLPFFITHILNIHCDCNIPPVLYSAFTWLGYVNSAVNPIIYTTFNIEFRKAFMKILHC

Structure (SMILES): CCCN(CCC)[C@H]1CCc2c(ccc3[nH]ccc23)[C@H]1C (relative stereo) [Example 15, cis-(6-Methyl-6,7,8,9-tetrahydro-3H-benzo[e]-indol-7-yl)-dipropylamine]
DOPA Stri. % decrease from control ([1]; highest dose 50 μmol/kg s.c.): 35%
DOPA Cortex. % decrease from control ([2]; highest dose 50 μmol/kg s.c.): 88%
5-HTP Limbic % decrease from control ([3]; highest dose 50 μmol/kg s.c.): 52%
Ki [4, 6]: 164 nM
Ki [5]: 124 nM

Structure (SMILES): CCCN(CCC)[C@H]1CCc2c(ccc3[nH]cc(C=O)c23)[C@H]1C (relative stereo) [Example 16, cis-7-Dipropylamino-6-methyl-6,7,8,9-tetrahydro-3H-benzo[e]-indole-1-carbaldehyde]
DOPA Stri. % decrease from control ([1]; highest dose 50 μmol/kg s.c.): 36%
DOPA ED50 Cortex. (I/P symbol) [2]: I(50)
ED50 [3, 7]: 50 µmol/kg
Ki [4, 6]: 924 nM

Structure (SMILES): CCCN(CCC)C1CCc2c(ccc3[nH]ccc23)C1 (single isomer, unassigned; (+)) [7A(+), (+)-Dipropyl-(6,7,8,9-tetrahydro-benzo[e]indol-7-yl)-amine, reference compound]
ED50 [1]: 0.12 µmol/kg
DOPA Cortex. % decrease from control ([2]; highest dose 12.5 μmol/kg s.c.): 67%
5-HTP Limbic % decrease from control ([3]; highest dose 12.5 μmol/kg s.c.): 80%
Ki (dopamine D2 receptor; In vitro binding Ki D2-spip.): 35 nM

Structure (SMILES): CCCN(CCC)C1CCc2c(ccc3[nH]cc(C=O)c23)C1 (single isomer, unassigned; (+)) [8(+), (+)-7-Dipropylamino-6,7,8,9-tetrahydro-3H-benzo[e]indole-1-carbaldehyde]
DOPA Stri. % decrease from control ([1]; highest dose 0.2 μmol/kg s.c.): 60%
ED50 [2]: 0.2 µmol/kg
ED50 [3, 7]: 0.2 µmol/kg

Structure (SMILES): CCCN(CCC)C1CCc2c(ccc3[nH]ccc23)C1 (single isomer, unassigned; (-)) [7A(-), (-)-Dipropyl-(6,7,8,9-tetrahydro-benzo[e]indol-7-yl)-amine, reference compound]
DOPA Stri. % decrease from control ([1]; highest dose 25 μmol/kg s.c.): 31%
DOPA Cortex. % decrease from control ([2]; highest dose 25 μmol/kg s.c.): 73%
5-HTP Limbic % decrease from control ([3]; highest dose 25 μmol/kg s.c.): 68%
Ki (dopamine D2 receptor; [8]): 257 nM
Ki [5]: 1450 nM

Ki [4, 6]: 3520 nM
Ki [5]: 9930 nM
Structure (SMILES): CCCN(CCC)C1CCc2c(ccc3c2NC(=O)C3=O)C1 (stereo not drawn) [Example 1, 7-Di-n-propylamino-6,7,8,9-tetrahydro-1H-benzo[g]indole-2,3-dione]
DOPA Stri. % decrease from control ([1]; highest dose 50 μmol/kg s.c.): 78%
highest dose tested (ED50 not reached) ([3]; Rattus norvegicus, sc, 0.5 h, s.c., number in brackets = highest dose, μmol/kg, read-out: 5-HTP ED50 Limbic (I/P symbol)): 50 µmol/kg

Structure (SMILES): CCCN(CCC)C1CCc2c(ccc3cc[nH]c23)C1 (stereo not drawn) [Example 2, Di-n-propyl-(6,7,8,9-tetrahydro-1H-benzo[g]indol-7yl)amine]
DOPA Stri. % decrease from control ([1]; highest dose 50 μmol/kg s.c.): 48%
5-HTP Limbic % decrease from control ([3]; highest dose 50 μmol/kg s.c.): 61%
Ki (dopamine D2 receptor; [8]): 320 nM
Ki [5]: 1120 nM

Ki (dopamine D2 receptor; [8]): 15900 nM
Ki [5]: 25300 nM
Structure (SMILES): CCCN(CCC)C1CCc2c(ccc3c2NC(=O)C3)C1 (stereo not drawn) [Example 4, 7-Di-n-propylamino-1,3,6,7,8,9-hexahydro-1H-benzo[g]indole-2-one]
ED50 ([3]; Rattus norvegicus, sc, 0.5 h, s.c., half-maximal decrease, reserpine-pretreated rats, read-out: 5-HTP ED50 Limbic): 5.8 µmol/kg

Structure (SMILES): CCCN(CCC)C1COc2c(ccc3cc[nH]c23)C1 (stereo not drawn) [Example 5, Di-n-propyl-(1,6,7,8-tetrahydro-9-oxa-1-azacyclopenta[a]naphthylenee-7-yl)amine]
DOPA Stri. % decrease from control ([1]; highest dose 3.1 μmol/kg s.c.): 26%
DOPA ED50 Cortex. (I/P symbol) [2]: I(50)
5-HTP Limbic % decrease from control ([3]; highest dose 50 μmol/kg s.c.): 62%
Ki (dopamine D2 receptor; [8]): 270 nM
Ki [5]: 178 nM

Structure (SMILES): CCCN(CCC)C1CCc2cc3[nH]ccc3cc2C1 (stereo not drawn) [Example 7, Di-n-propyl-(5,6,7,8-tetrahydro-1H-benzo[f]indol-6-yl)amine]
DOPA Stri. % decrease from control ([1]; highest dose 50 μmol/kg s.c.): 48%
ED50 [3, 7]: 50 µmol/kg
Ki (dopamine D2 receptor; [8]): 4200 nM
Ki [5]: 340 nM

Structure (SMILES): CCCN(CCC)C1CCc2c(ccc3[nH]ccc23)C1 (stereo not drawn) [Example 7A, Di-n-propyl-(6,7,8,9-tetrahydro-3H-benzo[e]indol-7-yl)amine, reference compound]
ED50 [1]: 0.3 µmol/kg
ED50 [2]: 12.5 µmol/kg
5-HTP Limbic % decrease from control ([3]; highest dose 3.1 μmol/kg s.c.): 72%
Ki (dopamine D2 receptor; In vitro binding Ki D2-spip.): 50 nM
Ki [5]: 500 nM

Structure (SMILES): CCCN(CCC)C1CCc2c(ccc3[nH]cc(C=O)c23)C1 (stereo not drawn) [Example 8, 7-Di-n-propylamino-6,7,8,9-tetrahydro-3H-benzo [e]indole-1-carbaldehyde]
ED50 [1]: 0.015 µmol/kg
DOPA Cortex. % decrease from control ([2]; highest dose 0.2 μmol/kg s.c.): 57%
ED50 [3, 7]: 50 µmol/kg
Ki (dopamine D2 receptor; In vitro binding Ki D2-spip.): 16 nM
Ki [5]: 2600 nM

Structure (SMILES): CCCN(CCC)C1CCc2cc3[nH]cc(C=O)c3cc2C1 (stereo not drawn) [Example 9, 6-Di-n-propylamino-5,6,7,8-tetrahydro-1H-benzo [f]indole-3-carbaldehyde]
DOPA Stri. % decrease from control ([1]; highest dose 12.5 μmol/kg s.c.): 37%
DOPA Cortex. % decrease from control ([2]; highest dose 12.5 μmol/kg s.c.): 85%
ED50 [3, 7]: 12.5 µmol/kg
Ki [4, 6]: 278 nM

Structure (SMILES): CCCN(CCC)C1CCc2c(ccc3[nH]cc(C#N)c23)C1 (stereo not drawn) [Example 10, 7-Di-n-propylamino-6,7,8,9-tetrahydro-3H-benzo[e]indole-1-carbonitrile]
ED50 [1]: 0.004 µmol/kg
DOPA Cortex. % decrease from control ([2]; highest dose 3.1 μmol/kg s.c.): 79%
ED50 [3, 7]: 3.1 µmol/kg
Ki [4]: 10.1 nM

Structure (SMILES): CCCN(CCC)C1CCc2c(ccc3ccoc23)C1 (stereo not drawn) [Example 17, Di-n-propyl-(6,7,8,9-tetrahydronaphtho[1,2-b]furan-7-yl)-amine]
ED50 [1]: 1 µmol/kg
DOPA Cortex. % decrease from control ([2]; highest dose 33.3 μmol/kg s.c.): 79%
ED50 [3, 7]: 33.3 µmol/kg
Ki [4]: 205 nM
